Experimental data as given in patent US20050250677A1, “Glycopeptide antibiotic derivatives” (priority 2002, published 2005).
Like-named read-outs stand apart in the source and are kept apart here.

How the values were obtained:
HIV-2(ROD) = assay: Inhibition of HIV-2 (ROD)-induced cytopathicity (giant cell formation) in CEM cells; assay type: cell-based; conditions: read-out: EC50 HIV-2 (concentration required to inhibit HIV-induced giant cell formation by 50%); HIV-2, CEM cell cultures
Description: (§1) A variety of glycopeptide antibiotic derivatives of vancomycin, eremomycin and teicoplanin including their aglycon derivatives were evaluated for their inhibitory activity against HIV-1 (IIIB) and HIV-2(ROD) in CEM cell cultures.

murine leukemia L1210 = assay: Cytostatic activity assay, L1210 cells; assay type: cell-based; conditions: read-out: IC50 L1210 (compound concentration required to inhibit tumor cell proliferation by 50%)
VZV (wild-type strains) = assay: Anti-VZV assay (wild-type strains): virus-induced cytopathicity in HEL cell cultures; assay type: cell-based, varicella-zoster virus
FCK cells = conditions: read-out: CC50 FCK; FCK cells
FCV = assay: Feline corona virus assay in Feline Crandel kidney cells (MTS); assay type: cell-based; conditions: for EC50: FCV in FCK cells, read-out: EC50 FCV
Description: Feline Crandel kidney cells were seeded in 96-well microtiter plates at 24,000 cells/well. Then, 24 hrs later, an appropriate inoculum of FCV is added together with 5-fold dilutions of the test compounds. After 4 days, a MTS/PMS solution was added to each well. Following a 90 min incubation period at 37° C., the optical density of the wells was read at 498 nm in a microplate reader.

human lymphocyte CEM = assay: Cytostatic activity assay, CEM cells; assay type: cell-based; conditions: read-out: IC50 CEM (compound concentration required to inhibit tumor cell proliferation by 50%)
HEL cells [1] = system: HEL cells
HEL cells [2] = conditions: read-out: CC50 (HEL), HEL cells
HIV-1 (IIIB) = assay: Inhibition of HIV-1 (IIIB)-induced cytopathicity (giant cell formation) in CEM cells; assay type: cell-based; conditions: read-out: EC50 HIV-1 (concentration required to inhibit HIV-induced giant cell formation by 50%); HIV-1, CEM cell cultures
Description: as §1

[3] = system: human lymphocyte Molt4/clone 8; assay: Cytostatic activity assay, Molt4/clone 8 cells; assay type: cell-based; conditions: read-out: IC50 Molt4/C8 (compound concentration required to inhibit tumor cell proliferation by 50%)
CMV = assay: Anti-CMV assay: virus-induced cytopathicity in HEL cell cultures
[4] = VZV strain OKA, HEL cell cultures, read-out: EC50 VZV (OKA)
[5] = VZV strain YS, HEL cell cultures, read-out: EC50 VZV (YS)
[6] = read-out: EC50 CMV AD-169, CMV strain AD-169, HEL cell cultures
[7] = read-out: EC50 CMV Davis, CMV strain Davis, HEL cell cultures

| Compound | EC50 (HIV-2(ROD)) [µM] | IC50 (murine leukemia L1210) [µM] | activity against VZV (VZV (wild-type strains)) | EC50 (VZV (wild-type strains); [4]) [nM] | EC50 (VZV (wild-type strains); [5]) [nM] | CC50 (FCK cells) [µM] | activity against FCV (FCV) | EC50 (FCV) [µM] | IC50 (human lymphocyte CEM) [µM] | MTC (HEL) (HEL cells [1]; anti-VZV table) | CC50 (HEL cells [2]; anti-VZV table) [µM] | EC50 (HIV-1 (IIIB)) [nM] | IC50 [3] [µM] | anti-CMV activity (CMV) | EC50 (CMV; [6]) [µM] | MTC (HEL) (HEL cells [1]; anti-CMV table) | CC50 (HEL cells [2]; anti-CMV table) [µM] | EC50 (CMV; [7]) [µM] | EC50 (VZV (wild-type strains); read-out: EC50 against VZV) [nM] |
| --- | --- | --- | --- | --- | --- | --- | --- | --- | --- | --- | --- | --- | --- | --- | --- | --- | --- | --- | --- |
| CNC(=O)C1NC(=O)C2NC(=O)C(NC(=O)C3NC(=O)C(CC(N)=O)NC(=O)C(NC(=O)C(CC(C)C)N(C)C(=O)OC(C)(C)C)C(O)c4ccc(c(Cl)c4)Oc4cc3cc(c4O)Oc3ccc(cc3)C2O)c2ccc(O)c(c2)-c2c1cc(O)c(CN1CCN(Cc3ccc(-c4ccccc4)cc3)CC1)c2O (stereo not shown) [Compound 7] | 3.5 ± 0.7 | 84 ± 22 | pronounced activity | 1000 | 870 | > 50 | pronounced activity | 3.6 | > 100 | ≧20 μM | > 50 | 4000 | > 100 | – | – | – | – | – | – |
| CCCCCCCCCNCc1c(O)cc2c(c1O)-c1cc(ccc1O)C1NC(=O)C3NC(=O)C4NC(=O)C(Cc5ccc(c(Cl)c5)Oc5cc3cc(c5O)Oc3ccc(cc3Cl)C(O)C(NC1=O)C(=O)NC2C(=O)NCCCN(C)C)NC(=O)C(N)c1ccc(O)c(c1)Oc1cc(O)cc4c1 (stereo not shown) [Compound 21] | 6.5 ± 0.7 | 43 ± 6 | – | 1300 | 2000 | – | – | – | 179 ± 1 | 5 to 50 µM | 107 | 2200 | 136 ± 33 | anti-CMV activity | 8 | 5 to 50 µM | 107 | – | – |
| NC1C(=O)NC2Cc3ccc(c(Cl)c3)Oc3cc4cc(c3O)Oc3ccc(cc3Cl)C(O)C3NC(=O)C(NC(=O)C4NC(=O)C(NC2=O)c2cc(O)cc(c2)Oc2cc1ccc2O)c1ccc(O)c(c1)-c1c(O)cc(O)cc1C(C(=O)N1CCN(Cc2ccc4ccccc4c2)CC1)NC3=O (stereo not shown) [Compound 25] | 5 | 175 ± 44 | – | 1000 | 600 | – | – | – | 113 ± 28 | 20 to 200 µM | > 50 | 2100 ± 1300 | 47 ± 4 | anti-CMV activity | 30 | 20 to 200 µM | > 50 | – | – |
| CCCCCCCCCC[N+](C)(C)CCCNC(=O)C1NC(=O)C2NC(=O)C(NC(=O)C3NC(=O)C4NC(=O)C(Cc5ccc(c(Cl)c5)Oc5cc3cc(c5O)Oc3ccc(cc3Cl)C2O)NC(=O)C(N)c2ccc(O)c(c2)Oc2cc(O)cc4c2)c2ccc(O)c(c2)-c2c(O)cc(O)cc21 (stereo not shown) [Compound 27] | 2.3 ± 0.21 | 9.1 ± 0.9 | – | 1000 | 800 | – | – | – | 18 ± 3 | ≧2-50 μM | > 200 | 1500 ± 420 | 28 ± 0.4 | anti-CMV activity | ≥ 5 | ≧2-50 μM | > 200 | 3.5 | – |
| CCCCCCCCCC[N+](C)(C)CCCNCc1c(O)cc2c(c1O)-c1cc(ccc1O)C1NC(=O)C3NC(=O)C4NC(=O)C(Cc5ccc(c(Cl)c5)Oc5cc3cc(c5O)Oc3ccc(cc3Cl)C(O)C(NC1=O)C(=O)NC2C(=O)NCCC[N+](C)(C)CCCCCCCCCC)NC(=O)C(N)c1ccc(O)c(c1)Oc1cc(O)cc4c1 (stereo not shown) [Compound 37] | 4.3 ± 0.58 | 12 ± 2 | – | 1500 | > 2000 | – | – | – | 9.4 ± 1.9 | ≧2-20 μM | 43 | 1600 ± 580 | 19 ± 12 | – | > 5 | ≧2-20 μM | 43 | 3.5 | – |
| CCCCCCCCCC[N+](C)(C)CCCNC(=O)C1NC(=O)C2NC(=O)C(NC(=O)C3NC(=O)C4NC(=O)C(Cc5ccc(c(Cl)c5)Oc5cc3cc(c5O)Oc3ccc(cc3Cl)C2O)NC(=O)C(N)c2ccc(O)c(c2)Oc2cc(O)cc4c2)c2ccc(O)c(c2)-c2c1cc(O)c(CN1CC[N+](C)(CCCCCCCCCC)CC1)c2O (stereo not shown) [Compound 39] | 1.3 ± 0.21 | 7.3 ± 0.3 | – | 900 | 810 | – | – | – | 14 ± 2 | ≧5 μM | 170 | – | 14 ± 3 | – | > 2 | ≧5 μM | 170 | 4 | – |
| CNC(CC(C)C)C(=O)NC1C(=O)NC(CC(N)=O)C(=O)NC2C(=O)NC3C(=O)NC(C(=O)NC(C(=O)O)c4cc(O)cc(O)c4-c4cc3ccc4O)C(O)c3ccc(c(Cl)c3)Oc3cc2cc(c3OC2OC(CO)C(O)C(O)C2OC2CC(C)(NCc3ccc(-c4ccc(Cl)cc4)cc3)C(O)C(C)O2)Oc2ccc(cc2Cl)C1O (stereo not shown) [Compound 59] | – | – | – | 870 | 890 | – | – | – | – | 5 to 20 µM | > 50 | – | – | anti-CMV activity | > 5 | 5 to 20 µM | > 50 | 16 | 870 to 890 |
| CCCCCCCCCCNC1(C)CC(OC2C(Oc3c4cc5cc3Oc3ccc(cc3Cl)C(O)C(NC(=O)C(CC(C)C)NC)C(=O)NC(CC(N)=O)C(=O)NC5C(=O)NC3C(=O)NC(C(=O)NC(C(=O)O)c5cc(O)cc(O)c5-c5cc3ccc5O)C(OC3CC(C)(N)C(O)C(C)O3)c3ccc(cc3)O4)OC(CO)C(O)C2O)OC(C)C1O (stereo not shown) [Compound 68] | – | – | – | > 2000 | 700 | – | – | – | – | 5 to 50 µM | > 200 | – | – | – | 20 | 5 to 50 µM | > 200 | > 20 | – |
| CNC(CC(C)C)C(=O)NC1C(=O)NC(CC(N)=O)C(=O)NC2C(=O)NC3C(=O)NC(C(=O)NC(C(=O)N4CCC5CCCCC5C4)c4cc(O)cc(O)c4-c4cc3ccc4O)C(O)c3ccc(cc3)Oc3cc2cc(c3O)Oc2ccc(cc2Cl)C1O (stereo not shown) [Compound 101] | > 125 | > 250 | – | – | – | > 100 | pronounced activity | 47 | > 250 | – | – | 63300 ± 53500 | > 250 | – | – | – | – | – | – |
| NC(=O)CC1NC(=O)C(NC(=O)C(N)Cc2c[nH]c3ccccc23)C(O)c2ccc(c(Cl)c2)Oc2cc3cc(c2O)Oc2ccc(cc2)C(O)C2NC(=O)C(NC(=O)C3NC1=O)c1ccc(O)c(c1)-c1c(O)cc(O)cc1C(C(=O)O)NC2=O [Compound 109, N-(D-Trp)-(de-N-Me-D-Leu)eremomycin aglycon] | 42.5 ± 10.6 | > 250 | – | – | – | > 100 | pronounced activity | 28 | > 250 | – | – | 7300 ± 580 | > 250 | – | – | – | – | – | – |
| O=C1NC2C(=O)NC3C(=O)NC4C(=O)NC(C(=O)NC(C(=O)O)c5cc(O)cc(O)c5-c5cc4ccc5O)C(O)c4ccc(c(Cl)c4)Oc4cc3cc(c4O)Oc3ccc(cc3Cl)CC1NC(=O)C(NCc1ccc(-c3ccccc3)cc1)c1ccc(O)c(c1)Oc1cc(O)cc2c1 (stereo not shown) [Compound 122] | – | – | – | 1000 | 1000 | – | – | – | – | 20 to 50 µM | > 50 | – | – | – | > 20 | 20 to 50 µM | > 50 | – | – |
| NC1C(=O)NC2Cc3ccc(c(Cl)c3)Oc3cc4cc(c3O)Oc3ccc(cc3Cl)C(O)C3NC(=O)C(NC(=O)C4NC(=O)C(NC2=O)c2cc(O)cc(c2)Oc2cc1ccc2O)c1ccc(O)c(c1)-c1c(O)cc(O)cc1C(C(=O)N1CCN(Cc2ccc(C=Cc4ccccc4)cc2)CC1)NC3=O (stereo not shown) [Compound 127] | – | – | – | 700 | 300 | – | – | – | – | ≧5-20 μM | 44 | – | – | – | 10 | ≧5-20 μM | 44 | > 5 | – |
